Values of other authors as cited in patent US9687433B2, “Anhydrous depigmenting compositions comprising phenolic compounds” (Ecstasy LLC, priority 2015, dated 2017).

Settings: degraded to hydroquinone

SMILES: Oc1ccc(OC2CCCCO2)cc1 (stereo not shown) [deoxyarbutin, 4-[(tetrahydro-2H-pyran-2-yl)oxy] phenol]
- stability in aqueous solutions: thermolabile and acid sensitive
